Tested on: Trypanosoma brucei brucei
Assay: Inhibition of Trypanosoma brucei brucei growth
Assay type: functional
Conditions: read-out: ED50 (the source's name)

| SMILES | EC50 |
| --- | --- |
| Nc1cccc2cnccc12 | 252 µM |
| CCc1ccccc1CO | 1340 µM |
| Cn1c(=O)ccc2ccccc21 | 413 µM |

From ChEMBL document CHEMBL1137410, “Using fragment cocktail crystallography to assist inhibitor design of Trypanosoma brucei nucleoside 2-deoxyribosyltransferase” (2006)
